Source: patent publication US6417212B1, “Modulators of peroxisome proliferator activated receptors” (Eli Lilly & Company, priority 1999, dated 2002)

Columns and labels:
huPPARγ = target: T1, huPPARγ (Homo sapiens, UniProt P37231); assay: Cotransfection assay in CV-1 cells, huPPARγ; assay type: cell-based; design: expressed in transfected cells; host or cells: CV-1 cells; conditions: AOX PPRE luciferase reporter, relative to agonist reference molecule, read-out: huPPARγ CTF Efficacy
T1 sequence (P37231 1-505): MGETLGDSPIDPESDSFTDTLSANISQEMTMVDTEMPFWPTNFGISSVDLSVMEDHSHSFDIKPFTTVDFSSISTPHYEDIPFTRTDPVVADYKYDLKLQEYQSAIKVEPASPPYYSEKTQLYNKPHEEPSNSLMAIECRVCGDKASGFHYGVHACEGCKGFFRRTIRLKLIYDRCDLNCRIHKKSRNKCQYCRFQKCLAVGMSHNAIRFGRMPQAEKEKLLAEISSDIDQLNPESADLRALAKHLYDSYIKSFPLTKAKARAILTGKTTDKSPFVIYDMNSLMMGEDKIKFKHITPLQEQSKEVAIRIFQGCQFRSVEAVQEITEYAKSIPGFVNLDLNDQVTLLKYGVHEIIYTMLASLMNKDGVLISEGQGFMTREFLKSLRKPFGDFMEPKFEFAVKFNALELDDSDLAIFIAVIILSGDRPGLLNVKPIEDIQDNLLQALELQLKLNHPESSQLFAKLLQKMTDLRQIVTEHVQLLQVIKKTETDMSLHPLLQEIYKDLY
T1 sequence (P19793 1-462 partner): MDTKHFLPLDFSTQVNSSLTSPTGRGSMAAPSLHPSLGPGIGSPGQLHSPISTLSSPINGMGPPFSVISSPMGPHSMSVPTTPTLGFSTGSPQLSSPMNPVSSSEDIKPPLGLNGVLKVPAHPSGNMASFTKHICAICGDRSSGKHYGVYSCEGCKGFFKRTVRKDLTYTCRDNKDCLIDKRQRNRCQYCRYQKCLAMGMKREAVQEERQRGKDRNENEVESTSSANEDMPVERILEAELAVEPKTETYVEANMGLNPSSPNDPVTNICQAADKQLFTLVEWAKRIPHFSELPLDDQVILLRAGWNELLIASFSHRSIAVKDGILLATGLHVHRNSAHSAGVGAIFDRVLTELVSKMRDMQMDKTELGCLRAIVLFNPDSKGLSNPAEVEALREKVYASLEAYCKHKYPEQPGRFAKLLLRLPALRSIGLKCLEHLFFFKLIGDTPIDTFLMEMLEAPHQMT
Protocol: DNA-dependent binding (ABCD binding) was carried out using SPA technology with PPAR receptors. […] Cotransfection assays were carried out in CV-1 cells. The reporter plasmid contained an acylCoA oxidase (AOX) PPRE and TK promoter upstream of the luciferase reporter cDNA. Appropriate PPARs and RXRα were constitutively expressed using plasmids containing the CMV promoter. […] In order to eliminate such interference, a GAL4 chimeric system was used in which the DNA binding domain of the transfected PPAR was replaced by that of GAL4, and the GAL4 response element was utilized in place of the AOX PPRE. […] Efficacies were determined by computer fit to a concentration-response curve, or in some cases at a single high concentration of agonist (10 μM). For binding or cotransfection studies with receptors other than PPARs, similar assays were carried out using appropriate ligands, receptors, reporter constructs, etc., for that particular receptor.
These studies were carried out to evaluate the ability of compounds of the invention to bind to and/or activate various nuclear transcription factors, particularly huPPARα (“hu” indicates “human”) and huPPARγ. These studies provide in vitro data concerning efficacy and selectivity of compounds of the invention. Furthermore, binding and cotransfection data for compounds of the invention were compared with corresponding data for marketed compounds that act on either huPPARα or huPPARγ.

Hu apoAI transgenic mice = assay: Evaluation of triglyceride and cholesterol levels in Hu apoAI transgenic mice; assay type: in vivo; conditions: Mus musculus, 168 h, 30 mg/kg daily oral gavage for 7 days; for change in vivo at 30 mg/kg: pooled sera, read-out: % HDLc Increase (serum, FPLC area under the curve, over vehicle); for inhibition in vivo at 30 mg/kg: serum 3 hours after dosing on day 7, read-out: % Triglyceride Decrease (serum, over mice receiving vehicle)
Protocol: After an acclimation period of 2 weeks, animals were individually identified by ear notches, weighed, and assigned to groups based on body weight. Beginning the following morning, mice were dosed daily by oral gavage for 7 days using a 20 gauge, 11⁄2 curved disposable feeding needle (Popper & Sons). […] Prior to termination on day 7, mice were weighed and dosed. Three hours after dosing, animals were anesthetized by inhalation of isoflurane (2-4%; Abbott Laboratories, Chicago, Ill.) and blood obtained via cardiac puncture (0.7-1.0 ml). Whole blood was transferred to serum separator tubes (Vacutainer SST), chilled on ice, and permitted to clot. Serum was obtained after centrifugation at 4° C. and frozen until analysis for triglycerides, total cholesterol, compound levels, and serum lipoprotein profile by fast protein liquid chromatography (FPLC) coupled to an inline detection system. After sacrifice by cervical dislocation, the liver, heart and epididymal fat pads were excised and weighed. […] The percentage decrease in triglyceride serum levels in mice receiving a compound of the invention over mice receiving vehicle are reported in Table 2. […] The absorbance of the dye produced is linearly related to the analyte in the sample. The assays were further modified in our laboratory for use in a 96 well format. […] An additional aliquot of sample, pipetted to a third well and diluted in 200 μl water, provided a blank for each specimen. […] All samples from an experiment were assayed at the same time to minimize inter-assay variability. Serum lipoproteins were separated and cholesterol quantitated with an in-line detection system. […] The change in voltage corresponding to change in cholesterol concentration was plotted vs time and the area under the curve corresponding to the elution of VLDL, LDL and HDL was calculated using Perkin Elmer Turbochrome software.

| SMILES | Emax (huPPARγ) [%] | change in vivo at 30 mg/kg (Hu apoAI transgenic mice) [%] | inhibition in vivo at 30 mg/kg (Hu apoAI transgenic mice) [%] |
| --- | --- | --- | --- |
| Cc1oc(-c2ccc(-c3c(F)cccc3F)cc2)nc1CCOc1ccc(OC(C)(C)C(=O)O)cc1 [Example 14, 2-(4-{2-[2-(2′,6′-Difluorobiphenyl-4-yl)-5-methyloxazol-4-yl]-ethoxy}-phenoxy)-2-methylpropionic acid] | 84 | 66 | 67.5 |
| Cc1oc(-c2ccc(-c3ccccc3)cc2)nc1CCOc1cccc(OC(C)(C)C(=O)O)c1 [Example 21, 2-{3-[2-(2-Biphenyl-4-yl-5-methyloxazol-4-yl)ethoxy]phenoxy}-2-methylpropionic acid] | 70 | 204 | 60.5 |
| Cc1sc(-c2cccc(-c3ccccc3)c2)nc1CCOc1ccc(OC(C)(C)C(=O)O)cc1 [Example 46, 2-{4-[2-(2-Biphenyl-3-yl-5-methyl-thiazol-4-yl)-ethoxy]-phenoxy}-2-methyl-propionic acid] | 142 | 26 | 16.4 |
